Source: US20230340012A1, “NATURAL AND SYNTHETIC COMPOUNDS FOR TREATING CANCER AND OTHER DISEASES” (PACIFIC ARROW LIMITED, priority 2009, published 2023)

Test system: cancer cells
Test: MTT cytotoxic assay of esterification products (Cytotoxicity activity)
Assay type: cell-based, human
How it was run: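 Cytotoxicity was read by MTT (Carmichael method, modified), with cells seeded 24 h ahead of treatment. Sixteen human cancer lines spanning bone, lung, bladder, ovary, colon, pancreas, prostate, skin, mouth, kidney, breast, liver, brain, leukemia and cervix were used. Test samples were acyl chloride esterification products of triterpenes, as mixtures or HPLC-purified compounds.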

[1] = E4A esterified with 2-propenoyl chloride (Ppe = Propenoyl), compounds isolated with HPLC
[2] = E4A esterified with Propionyl chloride (Ppi = Propionyl), compounds isolated with HPLC
[3] = E4A esterified with benzoyl chloride (Ben = benzoyl), compounds isolated with HPLC
[4] = esterification products of core compound E4A with (2E)-2-pentenoyl chloride (2pe = 2-pentenoyl)
[5] = esterification products of core compound E4A with Butyryl chloride (But = Butyryl)
[6] = esterification products of core compound E4A with Decanoyl chloride (Dec = Decanoyl)
[7] = esterification products of core compound E4A with Isobutyryl chloride (Iso = Isobutyryl)
[8] = esterification products of core compound E4A with Myristoyl chloride (Myr = Myristoyl)
[9] = esterification products of core compound E4A with Octanoyl chloride (Oct = Octanoyl)
[10] = MTT cytotoxic assay, isolated esterification products of E4A
[11] = E4A esterified with Cinnamoyl chloride (Cin = Cinnamoyl), compounds isolated with HPLC
[12] = E4A esterified with Crotonoyl chloride (Cro = Crotonoyl), compounds isolated with HPLC
[13] = E4A esterified with Acetyl chloride (Acy = Acetyl), compounds isolated with HPLC

## CC1(C)CC2C3=CCC4C5(C)CCC(O)C(C)(CO)C5CCC4(C)C3(C)CC(OC(=O)c3ccccc3)C2(COC(=O)c2ccccc2)C(O)C1O (stereo not drawn) [Compound K28]
[1]
  Cytotoxicity activity: moderate
[2]
  Cytotoxicity activity: moderate
[3]
  Cytotoxicity activity: moderate
[4]
  Cytotoxicity activity: moderate
[5]
  Cytotoxicity activity: moderate
[6]
  Cytotoxicity activity: moderate
[7]
  Cytotoxicity activity: moderate
[8]
  Cytotoxicity activity: moderate
[9]
  Cytotoxicity activity: moderate

## CC=C(C)C(=O)OCC12C(O)CC3(C)C(=CCC4C5(C)CCC(O)C(C)(CO)C5CCC43C)C1CC(C)(C)C(OC(=O)C(C)=CC)C2OC(=O)C(C)=CC (stereo not drawn) [Compound A20]
[10]
  Cytotoxicity activity: moderate

## CC1(C)CC2C3=CCC4C5(C)CCC(O)C(C)(CO)C5CCC4(C)C3(C)CC(O)C2(COC(=O)C=Cc2ccccc2)C(OC(=O)C=Cc2ccccc2)C1OC(=O)C=Cc1ccccc1 (stereo not drawn) [Compound J20]
[11]
  Cytotoxicity activity: moderate

## CC=CC(=O)OCC12C(OC(=O)C=CC)CC3(C)C(=CCC4C5(C)CCC(O)C(C)(CO)C5CCC43C)C1CC(C)(C)C(O)C2O (stereo not drawn) [Compound I28]
[12]
  Cytotoxicity activity: moderate

## CC(=O)OCC1(C)C(O)CCC2(C)C1CCC1(C)C2CC=C2C3CC(C)(C)C(O)C(OC(C)=O)C3(COC(C)=O)C(O)CC21C (stereo not drawn) [Compound H5]
[13]
  Cytotoxicity activity: moderate

## CCC(CC)C(=O)OCC1(C)C(O)CCC2(C)C1CCC1(C)C2CC=C2C3CC(C)(C)C(OC(=O)C(CC)CC)C(O)C3(COC(=O)C(CC)CC)C(OC(=O)C(CC)CC)CC21C (stereo not drawn) [Compound E13]
[10]
  Cytotoxicity activity: weak

## CC1(C)CC2C3=CCC4C5(C)CCC(OC(=O)C=Cc6ccccc6)C(C)(COC(=O)C=Cc6ccccc6)C5CCC4(C)C3(C)CC(O)C2(COC(=O)C=Cc2ccccc2)C(OC(=O)C=Cc2ccccc2)C1OC(=O)C=Cc1ccccc1 (stereo not drawn) [Compound J15]
[11]
  Cytotoxicity activity: weak

## CC1(C)CC2C3=CCC4C5(C)CCC(O)C(C)(COC(=O)c6ccccc6)C5CCC4(C)C3(C)CC(O)C2(CO)C(OC(=O)c2ccccc2)C1O (stereo not drawn) [Compound K30]
[1]
  Cytotoxicity activity: moderate
[2]
  Cytotoxicity activity: moderate
[3]
  Cytotoxicity activity: moderate
[4]
  Cytotoxicity activity: moderate
[5]
  Cytotoxicity activity: moderate
[6]
  Cytotoxicity activity: moderate
[7]
  Cytotoxicity activity: moderate
[8]
  Cytotoxicity activity: moderate
[9]
  Cytotoxicity activity: moderate

## CC1(C)CC2C3=CCC4C5(C)CCC(O)C(C)(CO)C5CCC4(C)C3(C)CC(O)C2(COC(=O)c2ccccc2)C(OC(=O)c2ccccc2)C1OC(=O)c1ccccc1 (stereo not drawn) [Compound K20]
[1]
  Cytotoxicity activity: moderate
[2]
  Cytotoxicity activity: moderate
[3]
  Cytotoxicity activity: moderate
[4]
  Cytotoxicity activity: moderate
[5]
  Cytotoxicity activity: moderate
[6]
  Cytotoxicity activity: moderate
[7]
  Cytotoxicity activity: moderate
[8]
  Cytotoxicity activity: moderate
[9]
  Cytotoxicity activity: moderate

## CC=C(C)C(=O)OCC1(C)C(O)CCC2(C)C1CCC1(C)C2CC=C2C3CC(C)(C)C(O)C(O)C3(COC(=O)C=Cc3ccccc3)C(O)CC21C (stereo not drawn) [Tig—Cin—1]
Esterification products isolated with HPLC, graded strong / moderate / weak
  Cytotoxicity activity: strong

## CC(=O)OCC1(C)C(OC(C)=O)CCC2(C)C1CCC1(C)C2CC=C2C3CC(C)(C)C(OC(C)=O)C(OC(C)=O)C3(COC(C)=O)C(OC(C)=O)CC21C (stereo not drawn) [Compound H19]
[13]
  Cytotoxicity activity: none

## CC=CC(=O)OCC1(C)C(O)CCC2(C)C1CCC1(C)C2CC=C2C3CC(C)(C)C(OC(=O)C=CC)C(O)C3(COC(=O)C=CC)C(O)CC21C (stereo not drawn) [Compound I4]
[12]
  Cytotoxicity activity: moderate

## CCC(CC)C(=O)OC1C(OC(=O)C(CC)CC)C2(CO)C(OC(=O)C(CC)CC)CC3(C)C(=CCC4C5(C)CCC(O)C(C)(CO)C5CCC43C)C2CC1(C)C (stereo not drawn) [Compound E22]
[10]
  Cytotoxicity activity: moderate

## CC(=O)OCC1(C)C(OC(C)=O)CCC2(C)C1CCC1(C)C2CC=C2C3CC(C)(C)C(O)C(OC(C)=O)C3(COC(C)=O)C(O)CC21C (stereo not drawn) [Compound H9]
[13]
  Cytotoxicity activity: weak

## CCC(CC)C(=O)OCC12C(O)CC3(C)C(=CCC4C5(C)CCC(O)C(C)(CO)C5CCC43C)C1CC(C)(C)C(OC(=O)C(CC)CC)C2O (stereo not drawn) [Compound E25]
[10]
  Cytotoxicity activity: moderate

## CC(C)=CC(=O)OCC1(C)C(O)CCC2(C)C1CCC1(C)C2CC=C2C3CC(C)(C)C(OC(=O)C=C(C)C)C(OC(=O)C=C(C)C)C3(COC(=O)C=C(C)C)C(OC(=O)C=C(C)C)CC21C (stereo not drawn) [Compound B16]
[10]
  Cytotoxicity activity: weak

## CC(=O)OCC1(C)C(OC(C)=O)CCC2(C)C1CCC1(C)C2CC=C2C3CC(C)(C)C(OC(C)=O)C(O)C3(COC(C)=O)C(OC(C)=O)CC21C (stereo not drawn) [Compound H17]
[13]
  Cytotoxicity activity: weak

## CCC(CC)C(=O)OCC1(C)C(OC(=O)C(CC)CC)CCC2(C)C1CCC1(C)C2CC=C2C3CC(C)(C)C(OC(=O)C(CC)CC)C(OC(=O)C(CC)CC)C3(COC(=O)C(CC)CC)C(OC(=O)C(CC)CC)CC21C (stereo not drawn) [Compound E19]
[10]
  Cytotoxicity activity: none
